Read-outs that look alike come from different tables or passages of the source.
Molecular target: mu-opioid receptor (MOR) (Homo sapiens (Human), UniProt P35372)
Assay: cell-based
Conditions: combined with a MOR antagonist; for AUC: AUC of [Ca2+]i fluorescence, CHO-K1/MOR/Gα15 cells
Procedure: In an exemplary in vitro screening method for identifying antagonist-to-agonist allosteric modifiers of a MOR, cells that express a MOR are treated with a test compound and a MOR antagonist in a cellular calcium fluorescent assay and fluorescence intensity is then measured to determine whether the MOR is activated. A test compound is identified as an antagonist-to-agonist allosteric modifier of the MOR if the MOR is activated.
EC50 herein refers to the concentration of a compound that induces a response halfway between the baseline and the maximum after a specified exposure time. AUC refers to the area under the response curve, an indication of the compound's capability of activating a MOR when combined with a MOR antagonist.
Human embryonic kidney 293 (HEK-293) cells constitutively expressing MOR (HEK-MOR) and DOR (HEK-DOR) (kindly provided by Dr. Ping-Yee Law, University of Minnesota, USA) were cultured in high-glucose Dulbecco's modified Eagle's medium (DMEM, GIBCO) supplemented with 400 μg/mL G418 (Sigma), 2 mM L-glutamine and P/S/F (100 units/mL penicillin, 100 μg/mL streptomycin, 10% fetal bovine serum). Chinese hamster ovary (CHO)-K1 cells, stably expressing hMOR and Gα15 (CHO-K1/MOR/Gα15), were cultured in F12 medium (GIBCO) supplemented with 10 μg/mL Hygromycin B (Invivogen), 20 μg/mL Zeocin (Invivogen) P/S/F (100 units/mL penicillin, 100 μg/mL streptomycin, 10% fetal bovine serum). The cultures were incubated at 37° C. in a humidified 5% CO2 incubator.
One day before the assay, CORNING® black with clear flat bottom 96-well assay plates were coated with a 0.1 mg/mL Poly-L-Lysine solution. CHO-K1/MOR/Gα15 cells were suspended in the F12 medium and plated at a density of ˜8×10^4 cells/well in 200 μL medium. Cells were incubated in a humidified atmosphere of 10% CO2 at 37° C. overnight so as to reach an 80-90% confluent cell monolayer before assay. At the day of assay, 150 μL medium/well was removed from plate. To each well, 50 μL FLIPR® calcium assay reagent dissolved in 1× assay buffer (HBSS: KCl 5 mM, KH2PO4 0.3 mM, NaCl 138 mM, NaHCO3 4 mM, Na2HPO4 0.3 mM, d-glucose 5.6 mM, with additional 20 mM HEPES and 13 mM CaCl2, pH 7.4), with 2.5 mM probenecid was added and the plate was incubated at 37° C. for 1 h. Compounds and other reagents were dissolved in the assay buffer. Using a FlexStationIII (Molecular Devices Corp.), the [Ca^2+]i fluorescence increases after robotic injections of compounds or other reagents were monitored every 1.52 s interval with excitation wavelength at 485 nm and with emission wavelength at 525 nm. The [Ca^2+]i fluorescence was measured up to 90 s after agonist injection.
A CHO-K1 cell line, expressing a MOR and Gα15 (GenScript), was used to set up a sensitive high-throughput screen (HTS) system. In a FLIPR® calcium assay using CHO-K1/MOR/Gα15 cells, activation of MOR elicits an intracellular calcium release leading to an increase in the relative fluorescence units (FRU). […] The HTS was performed in the absence or presence of an opioid antagonist, naloxone (25 nM), to identify antagonist to agonist allosteric modifiers (AAM).
A CHO-K1 cell line, expressing a MOR and Gα15 (GenScript), was used to set up a sensitive assay system for detecting μ-opioid receptor activation. […] The assay was performed in the presence of an opioid antagonist, i.e., naloxone (25 nM), naltrexone (20 nM), samidorphan (10 nM), naloxonazine dihydrochloride (20 nM), β-funaltrexamine hydrochloride (20 nM), cyprodime hydrochloride (500 nM), or nalmefene (20 nM), in combination with compound 58, an antagonist to agonist allosteric modifier (AAM), to identify activation of the μ-opioid receptor.

Chain of mu-opioid receptor (MOR) (P35372 whole entry): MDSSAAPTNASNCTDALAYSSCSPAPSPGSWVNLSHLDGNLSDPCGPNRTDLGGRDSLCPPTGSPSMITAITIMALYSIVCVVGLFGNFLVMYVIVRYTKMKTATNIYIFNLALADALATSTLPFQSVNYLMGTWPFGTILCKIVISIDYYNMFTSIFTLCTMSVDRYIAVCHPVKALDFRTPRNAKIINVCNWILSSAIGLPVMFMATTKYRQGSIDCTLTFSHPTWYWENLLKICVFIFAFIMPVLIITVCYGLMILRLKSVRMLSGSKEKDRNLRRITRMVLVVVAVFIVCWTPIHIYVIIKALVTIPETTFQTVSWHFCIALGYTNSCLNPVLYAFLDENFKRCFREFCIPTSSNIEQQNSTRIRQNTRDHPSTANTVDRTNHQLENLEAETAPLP

| SMILES | AUC | EC50 (EC50, CHO-K1/MOR/Gα15 cells) [µM] | FLIPR Ca^2+ AUC | EC50 (read-out: FLIPR Ca^2+ EC50) [µM] |
| --- | --- | --- | --- | --- |
| COC(=O)COc1ccc(N2C(=O)CSC2c2ccc(F)cc2)c(C)c1 (centres unmarked) [Example 93] | more than 5000 | < 10 | 11009 | 6.4 |
| Cc1cc(C(=O)NS(=O)(=O)c2ccc(C#N)cc2)ccc1N1C(=O)CSC1c1ccc(F)cc1 (centres unmarked) [Example 187] | – | – | 12927 | 3.3 |
| Cc1cc(C(=O)OC(C)(C)C)ccc1N1C(=O)CSC1c1ccc(F)cc1 (centres unmarked) [Example 235] | – | – | 15203 | 6.8 |
| CC(=O)N1CCC(CCOC(=O)c2ccc(N3C(=O)CSC3c3ccc(F)cc3)c(C)c2)CC1 (centres unmarked) [Example 299] | – | – | 10053 | 5 |
| Cc1cc(C(=O)NCc2ccc(Cl)cc2F)ccc1N1C(=O)CSC1c1ccc(F)cc1 (centres unmarked) [Example 375] | – | – | 4172 | 3.8 |
| Cc1cc(C(=O)OCCN(C)C)ccc1N1C(=O)CSC1c1ccc(F)cc1 (centres unmarked) [Example 290] | – | – | 14778 | 10 |
| Cc1ccc(C(=O)O)cc1N1C(=O)CSC1c1ccc(F)cc1 (centres unmarked) [Example 54] | – | – | 8906 | 3.3 |
| Cc1cc(C(=O)O)ccc1N1C(=O)CSC1c1cccc(C(F)(F)F)c1 (centres unmarked) [Example 74] | – | < 10 | – | – |
| Cc1cc(CC(=O)O)ccc1N1C(=O)CSC1c1ccc(F)cc1 (centres unmarked) [Example 101] | – | < 10 | – | – |
| Cc1cc(C(=O)NS(=O)(=O)c2ccccc2)ccc1N1C(=O)CSC1c1ccc(F)cc1 (centres unmarked) [Example 183] | more than 5000 | < 10 | 12230 | 1.9 |
| CCS(=O)(=O)NC(=O)c1ccc(N2C(=O)CSC2c2ccc(F)cc2)c(C)c1 (centres unmarked) [Example 162] | more than 5000 | < 10 | 13767 | 9.1 |
| Cc1cc(-c2nnc(C(F)(F)F)o2)ccc1N1C(=O)CSC1c1ccc(F)cc1 (centres unmarked) [Example 228] | – | – | 7035 | 8.6 |
| [2H]C1(c2ccc(F)cc2)SCC(=O)N1c1ccc(C(=O)O)cc1C (centres unmarked) [Example 581, 4-[2-(4-Fluorophenyl)-4-oxo-2-d1-1,3-thiazolidin-3-yl]-3-methylbenzoic acid] | – | – | 13703 | 3.31 |
| Cc1cc(C(=N)NO)ccc1N1C(=O)CSC1c1ccc(F)cc1 (centres unmarked) [Example 151] | more than 5000 | < 10 | 10591 | 3.4 |
| Cc1cc(C(=O)NCc2cccc(C(F)(F)F)c2)ccc1N1C(=O)CSC1c1ccc(F)cc1 (centres unmarked) [Example 377] | – | – | 12637 | 12.5 |
| Cc1cc(C(=O)O)ccc1N1C(=O)CSC1c1ccc(Cl)cc1 (centres unmarked) [Example 84] | more than 5000 | < 10 | 5509 | 7.2 |
| [2H]c1c([2H])c(C2SCC(=O)N2c2ccc(C(=O)O)cc2C)c([2H])c([2H])c1F (centres unmarked) [Example 579, 4-{2-[4-Fluoro-2,3,5,6-d4-phenyl]-4-oxo-1,3-thiazolidin-3-yl}-3-methylbenzoic acid] | – | – | 14761 | 1.93 |
| Cc1cc(C(=O)NCc2ccccc2)ccc1N1C(=O)CSC1c1ccc(F)cc1 (centres unmarked) [Example 374] | more than 5000 | – | 6726 | 5.1 |
| Cc1cc(C(=O)OC2CCN(C)C2)ccc1N1C(=O)CSC1c1ccc(F)cc1 (centres unmarked) [Example 300] | – | – | 12918 | 1.6 |
| Cc1cc(C(=O)NS(=O)(=O)c2ccc(Br)cc2)ccc1N1C(=O)CSC1c1ccc(F)cc1 (centres unmarked) [Example 200] | more than 5000 | < 10 | 12340 | 0.2 |
| Cc1cc(F)ccc1N1C(=O)CSC1c1ccc(F)cc1 (centres unmarked) [Example 110] | – | – | 6308 | 3.8 |

| SMILES | AUC | EC50 (EC50, CHO-K1/MOR/Gα15 cells) [µM] | FLIPR Ca^2+ AUC | EC50 (read-out: FLIPR Ca^2+ EC50) [µM] |
| --- | --- | --- | --- | --- |
| CCc1ccc(S(=O)(=O)NC(=O)c2ccc(N3C(=O)CSC3c3ccc(F)cc3)c(C)c2)cc1 (centres unmarked) [Example 186] | – | – | 18048 | 0.6 |
| COCCN(C)C(=O)c1ccc(N2C(=O)CSC2c2ccc(F)cc2)c(C)c1 (centres unmarked) [Example 356] | – | – | 9505 | 11.8 |
| Cc1cc(C(=O)OCCC#N)ccc1N1C(=O)CSC1c1ccc(F)cc1 (centres unmarked) [Example 269] | – | – | 14183 | 12.3 |
| Cc1cc(C(=O)OCCOCCN(C)C)ccc1N1C(=O)CSC1c1ccc(F)cc1 (centres unmarked) [Example 306] | more than 5000 | < 10 | 7531 | 6.2 |
| Cc1cc(C(=O)NS(=O)(=O)c2ccc(OC(F)(F)F)cc2)ccc1N1C(=O)CSC1c1ccc(F)cc1 (centres unmarked) [Example 189] | – | – | 9544 | 1.1 |
| Cc1cc(C(=O)NCCc2ccccc2F)ccc1N1C(=O)CSC1c1ccc(F)cc1 (centres unmarked) [Example 383] | – | – | 5504 | 6.9 |
| Cc1ccc(C(F)(F)F)cc1N1C(=O)CSC1c1ccc(F)cc1 (centres unmarked) [Example 92] | – | < 10 | – | – |
| Cc1cc(C(=O)N2CCCC(O)C2)ccc1N1C(=O)CSC1c1ccc(F)cc1 (centres unmarked) [Example 353] | – | – | 11991 | 7.3 |
| Cc1cc(C(=O)NC2CCCC2)ccc1N1C(=O)CSC1c1ccc(F)cc1 (centres unmarked) [Example 338] | – | < 10 | 9215 | 4.4 |
| Cc1cc(C(=O)NS(=O)(=O)N(C)C)ccc1N1C(=O)CSC1c1ccc(F)cc1 (centres unmarked) [Example 174] | – | – | 12074 | 3.8 |
| COCC(C)OC(=O)c1ccc(N2C(=O)CSC2c2ccc(F)cc2)c(C)c1 (centres unmarked) [Example 279] | – | – | 10883 | 4.1 |
| Cc1cc(-c2ccco2)ccc1N1C(=O)CSC1c1ccc(F)cc1 (centres unmarked) [Example 224] | more than 5000 | – | 7384 | 11.7 |
| COC(=O)c1ccc(N2C(=O)CSC2c2ccsc2)c(C)c1 (centres unmarked) [Example 648, Methyl 3-methyl-4-[4-oxo-2-(thiophen-3-yl)-1,3-thiazolidin-3-yl]benzoate] | more than 5000 | < 10 | 9356 | 2.01 |
| Cc1cc(C(=O)NS(=O)(=O)c2ccc(F)cc2F)ccc1N1C(=O)CSC1c1ccc(F)cc1 (centres unmarked) [Example 206] | – | < 10 | – | – |
| CCCS(=O)(=O)NC(=O)c1ccc(N2C(=O)CSC2c2ccc(F)cc2)c(C)c1 (centres unmarked) [Example 160] | more than 5000 | < 10 | 13549 | 4.3 |
| Cc1ccc(N2C(=O)CSC2c2ccc(F)cc2)c(C)c1 (centres unmarked) [Example 102] | – | < 10 | – | – |
| Cc1cc(C(=O)OC(C)CNC(=O)c2ccc[n+](C)c2)ccc1N1C(=O)CSC1c1ccc(F)cc1 (centres unmarked) [Example 328] | – | – | – | 11.8 |
| Cc1cc(C(=O)OC(C)C)ccc1N1C(=O)CSC1c1ccc(F)cc1 (centres unmarked) [Example 231] | – | < 10 | – | – |
| Cc1nnc(-c2ccc(N3C(=O)CSC3c3ccc(F)cc3)c(C)c2)o1 (centres unmarked) [Example 227] | – | – | 15410 | 5.5 |
| COCCOCCOC(=O)c1ccc(S(=O)(=O)NC(=O)c2ccc(N3C(=O)CSC3c3ccc(F)cc3)c(C)c2)cc1 (centres unmarked) [Example 591, 2-(2-Methoxyethoxy)ethyl 4-({4-[2-(4-fluorophenyl)-4-oxo-1,3-thiazolidin-3-yl]-3-methylbenzoyl}sulfamoyl)benzoate] | more than 5000 | – | 13033 | 10.3 |
| CCOc1ccc(N2C(=O)CSC2c2ccc(F)cc2)cc1Cl (centres unmarked) [Example 20] | – | < 10 | – | – |
